Patent US6545026B1, “Substituted benzylthiazolidine-2,4-dione derivatives” (Kyorin Pharmaceutical Co., Ltd., priority 1999, dated 2003)
Read-outs that look alike come from different tables or passages of the source.

Assays:
[1] = molecular target: T1, fused protein of DNA-binding domain of yeast transcription factor with ligand-binding domain of human type PPAR α (Homo sapiens, UniProt Q07869); assay: Test of transactivation on peroxisome proliferator-activated receptor α (CHO cells, reporter assay)
T1 sequence (Q07869 239-466 limits assumed): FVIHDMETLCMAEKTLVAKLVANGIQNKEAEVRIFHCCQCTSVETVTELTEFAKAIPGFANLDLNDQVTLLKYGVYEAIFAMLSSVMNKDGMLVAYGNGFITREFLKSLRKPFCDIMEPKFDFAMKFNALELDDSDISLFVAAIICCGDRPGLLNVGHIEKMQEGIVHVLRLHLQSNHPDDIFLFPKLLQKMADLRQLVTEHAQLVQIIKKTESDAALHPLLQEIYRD
Procedure: (§1) Test of transactivation on peroxisome proliferator-activated receptors α and γ
(§2) After 24 hours, CAT activity and γ-galactosidase activity were measured.

[2] = molecular target: T2, fused protein of DNA-binding domain of yeast transcription factor with ligand-binding domain of human type PPAR γ (Homo sapiens, UniProt P37231); assay: Test of transactivation on peroxisome proliferator-activated receptor γ (CHO cells, reporter assay)
T2 sequence (P37231 238-503 limits assumed): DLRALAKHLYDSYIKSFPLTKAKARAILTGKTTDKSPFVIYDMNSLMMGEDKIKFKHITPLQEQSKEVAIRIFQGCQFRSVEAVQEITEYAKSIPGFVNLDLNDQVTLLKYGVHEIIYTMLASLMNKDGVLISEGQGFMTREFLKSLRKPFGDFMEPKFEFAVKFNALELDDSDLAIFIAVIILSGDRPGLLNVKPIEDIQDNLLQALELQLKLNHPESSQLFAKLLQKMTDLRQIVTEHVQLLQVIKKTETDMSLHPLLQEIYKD
Procedure: as §1, §2

COc1ccc(CC2SC(=O)NC2=O)cc1C(=O)NCC1CCCCC1 (stereo not drawn) [Example 4, N-(Cyclohexylmethyl)-5-[(2,4-dioxothiazolidin-5-yl)methyl]-2-methoxybenzamide] gave an EC50 [1] of 0.3 µM and an EC50 [2] of 0.23 µM.

COc1ccc(CC2SC(=O)NC2=O)cc1C(=O)NCc1ccccn1 (stereo not drawn) [Example 1, N-[(2-Pyridyl)methyl]-5-[(2,4-dioxothiazolidin-5-yl)methyl]-2-methoxybenzamide] showed an EC50 [1] of 0.353 µM and an EC50 [2] of 0.3 µM.

COc1ccc(CC2SC(=O)NC2=O)cc1C(=O)NCc1ccncc1 (stereo not drawn) [Example 3, N-[(4-Pyridyl)methyl]-5-[(2,4-dioxothiazolidin-5-yl)methyl]-2-methoxybenzamide] showed an EC50 [1] of 0.235 µM and an EC50 [2] of 0.14 µM.

Compound CCCCC/C=C\C/C=C\C=C\[C@@H](O)C/C=C\CCCC(=O)O [(8S)-HETE, reference compound] has an EC50 ([1]; read-out: Transactivation PPARα EC50, CHO cells, cotransfected receptor and reporter plasmid, 24 hours, CAT activity) of 1.3 µM.

COc1ccc(CC2SC(=O)NC2=O)cc1C(=O)NCc1cccnc1 (stereo not drawn) [Example 2, N-[(3-Pyridyl)methyl]-5-[(2,4-dioxothiazolidin-5-yl)methyl]-2-methoxybenzamide] showed an EC50 [1] of 0.42 µM and an EC50 [2] of 0.96 µM.
